# Data reported in patent publication US20220339257A1, “METHODS TO INCREASE THE SENSITIVITY AND REVERSING THE RESISTANCE TO DRUGS” (Biomarker Strategies, LLC, priority 2019, published 2022).
# Where a name gives a salt, the structure may show the parent alone.
# What was measured:
# Format in all cases: cell-based
# Ca-922 cell line = assay: HoPI live cell staining; parameters: concentration or dose not given beside the values; conditions: single agent, 24 hours
# Excerpt: (§1) A double stain of Hoechst 33342 and propidium iodide allows for the determination of cell viability with high specificity and low background noise, as compared to trypan blue staining. Hoechst 33342 is a cell permeable blue fluorescent nuclear stain which will stain all cell types. Propidium iodide is a cell impermeable red fluorescent nuclear stain that will only bind to the nuclei of cells with compromised membranes (dead cells). The staining can be performed rapidly on live cell suspensions within 15 minutes. 25 uL of 4× Hoechst 33342 Solution (40 ug/mL) and 25 uL of 4×Propidium Iodide Solution are added to 50 uL of cell suspension. The suspension was gently mixed 10 times and 50 uL was immediately transferred to a microfluidic cell counting chip. A 365 nm LED was used to excite both Hoechst 33342 and propidium iodide. Images of the cells were captured using a 10× objective lens on an Olympus microscope using a Canon EOS 6D camera using an ISO of 800 and an exposure of 2 seconds; both JPEG and RAW images were saved for analysis. The blue channel was used to measure the total number of cells and the red channel was used to measure the number of dead cells. Cell counting was performed automatically by the Image Pro software (Media Cybernetics, Inc).
# MTA and EM effects on apoptosis were measured by Hoechst-Propidium Iodide staining (HoPI). For the assay, cells were seeded in 6-well plates at 400K cells per well, in 2 mL of 10% FBS-containing media and incubated for 24 hours. At 24 hours, a 1 nM to […] range of MTA and/or 1 ng/mL to 1 mg/mL range of EM doses was added and incubated for 24 hours. After 24 hours incubation respective cells' media was collected, added the 1× HBSS wash from the plate in the respective tube. Adherent cells were detached by treating with Accutase for 6 minutes and collected in respective tubes. All samples were centrifuged for 5 minutes at 1200 RPM. The cell pellets were resuspended in PBS and centrifuged again for 5 minutes at 1200 RPM. Cell pellets were resuspended in 200 uL of PBS and mixed properly to get single cell suspension. 50 uL of cell suspension was added into separate tubes having 10 uL of a 2× HOPI solution (20 ug/mL Hoechst 33342 and 20 ug/mL propidium iodide solution) to get a final concentration of Hoechst 33342 and propidium iodide to […]. Make up the volume to 100 uL with 40 uL of PBS. Samples were mixed thoroughly for even cell staining and the microfluidsic chip wells were each filled with 10 uL of sample. Chips were then incubated in the dark for 20 minutes. A 365 nm LED was used to excite both Hoechst 33342 and propidium iodide as they were visualize under a microscope. Cell images were captured using a 10× objective lens on an Olympus microscope using a Canon EOS 6D camera with an ISO of 800 and an exposure of 2 seconds; both JPEG and RAW images were saved for analysis. The blue channel was used to measure the total number of cells and the red channel was used to measure the number of dead cells. For image analysis, a copy of the image was created and converted directly into an 8-bit gray scale image. A threshold was placed on the image to create a binary mask; the threshold level was 20 intensity units out of 255 intensity units. Next, a particle analysis algorithm was applied to the binary mask and a set of cellular regions (between 100 to 800 cellular regions per image) was created. The original image was then split into red, green and blue channels. The area, mean intensity, standard deviation of the mean intensity, minimum intensity, maximum intensity and perimeter were measured for each cellular region in the red channel and also in the blue channel. The green channel was discarded. To discern between live and dead cells, the maximum intensity in the red channel was used with a threshold of 100 intensity units. Double plots were created using the intensity of the blue channel (X-axis) and the intensity of the red channel (Y-axis). […]
# RPMI-1975 = assay: HoPI live cell staining; conditions: single agent, 24 hours
# Excerpt: as §1
# MTA and EM effects on apoptosis were measured by Hoechst-Propidium Iodide staining (HoPI). For the assay, cells were seeded in 6-well plates at 400K cells per well, in 2 mL of 10% FBS-containing media and incubated for 24 hours. At 24 hours, a 1 nM to […] range of MTA and/or 1 ng/mL to 1 mg/mL range of EM doses was added and incubated for 24 hours. After 24 hours incubation respective cells' media was collected, added the 1× HBSS wash from the plate in the respective tube. Adherent cells were detached by treating with Accutase for 6 minutes and collected in respective tubes. All samples were centrifuged for 5 minutes at 1200 RPM. […] The area, mean intensity, standard deviation of the mean intensity, minimum intensity, maximum intensity and perimeter were measured for each cellular region in the red channel and also in the blue channel. […]
# [1] = tested on: H1975 (EGFR-double mutant line); assay: MTT cell survival assay; conditions: erlotinib 14 μM alone; H1975; 72 hours
# Procedure: Cells (10^4 cells/well) were grown in 96-well plates and exposed for 72 hours to different doses of erlotinib, alone or in combination with EM2. The percentage of cell survival was determined using the 3-(4, 5-dimethylthiazol-2-yl)-2, 5-diphenyltetrazolium bromide (MTT). Single drug alone and vehicle were kept as controls.
# A-253 cells = assay: Western blot of protein biomarkers; conditions: spermidine (50 μM)+GM-CSF (50 ng/mL)
# Procedure: (§2) MTA and EM effects on protein biomarker expression were measured by western blotting. For the assay cell lines (Ca9-22, PE/CA-PJ15, HTB-38, HPAF-II, CAL27, BICR-16, A-253, Calu-6, PC-9, H1838, RPMI-7951 and A7) were cultured and treated with doses of MTAs alone, EMs alone and in combination and then lysed for protein analysis. This method can readily be conducted under adherent or suspension conditions, manually or on automated instruments, such as SnapPath. A total of 0.3×10^6 cells per well were seeded in 6 well plates with 10% FBS-containing media and incubated for 24 hours. Cells were then treated with MTA and/or EM concentrations for 24 hours. For total protein extraction, briefly, each sample media was collected, and wells were washed with HMS, and the wash was combined with its respective media collection. Cells were then detached using Accutase solution and again collected in its respective sample media and another HMS well wash and collection was performed. All cell solutions were centrifuged, washed with ice-cold PBS, and centrifuged again. Cell pellets were lysed in 250 μL of ice-cold 1× lysis buffer with protease and phosphatase inhibitor cocktails and incubated for 10 minutes on ice. Lysates were clarified with a centrifugation (14,000 rpm) for 10 minutes at 4° C. Cell lysates were quantified using Bio-Rad DC Protein Assay (Bio-Rad Cat. #5000116).
# (§3) For all western blots, an equal amount of protein (3-5 μg) was loaded into SDS-polyacrylamide gels (Mini-Protean TGX Precast Gel; Bio-Rad, e.g. 7.5%, Cat. #4561024; 10%, Cat. #4561035; 12%, Cat. #4561045; or 4-15%, Cat. #4561085). Proteins were separated at 215V for at least 30 minutes in 1× Tris/Glycine/SDS buffer (Bio-Rad Cat. #1610772) and transferred to PVDF membranes using a Trans-Blot Turbo (Bio-Rad Cat. #1704155) for 7 minutes in transfer buffer (Trans-Blot Turbo Transfer Kit, Bio-Rad Cat. #1704273). Blots were blocked at room temperature for 1 hour with 5% non-fat dry milk in tris-buffered saline with Tween 20 (TBST; 15 mM Tris-HCl, pH 7.5, 200mMNaCl and 0.1% Tween 20). Membranes were incubated with primary antibodies at 4° C. overnight and at room temperature for 1 hour the next day; all primary antibodies were diluted following manufacturer's specifications in TBST with either 5% BSA or 5% non-fat dry milk. Membranes were washed in TBST for 5 minutes, three times, and incubated with HRP-conjugated secondary antibodies diluted 1:5000 in TBST with 5% non-fat dry milk at room temperature for 1 hour (anti-rabbit IgG, Bio-Rad Cat. #1706515; or anti-mouse IgG, Bio-Rad Cat. #1706516). Membranes were then washed in TBST for 10 minutes, three times, and target proteins were identified using Clarity Western ECL Substrate (Bio-Rad Cat. #1705061) on autoradiography film (GenHunter Cat. #B581, Nashville, Tenn., USA). Other assay types, such as Luminex multiplexed immunoassays, ICC, IHC, flow cytometry, etc. can be used readily.
# [2] = tested on: panel of cell lines that included NSCLC, HNSCC, melanoma, and CRC; assay: WST8 in vitro sensitivity to MTAs with and without EM
# Procedure: Day 1: cells were harvested cells from flask (4 mL accutase for T175 for 3-5 minutes), and spin down for 5 mins at 1200 rpm. The supernatant was poured off, and the pellet gently resuspended in 1 mL media. Countess counts were performed, and the cells were diluted in media (10% FBS). With multi-channel pipette, 2500 cells were seeded in 100 uL of media (10% FBS) in each well of 96 well plate. The cells were let to adhere and grow for 24 hours. Day 2: serial drug dilutions of MTAs+/−EMs at 5× of concentrations (as done above) were performed in media (10% FBS). 20 uL of media form each well of the 96 well plate (80 uL media left in wells) was removed, and 20 uL of appropriate 5× drug dilutions was added to each respective well (for a 1× conc). The cells were incubated with drug for 72 hours in 37C incubator. Day 5: 10 uL of WST-8 reagent was added to each well of the 96 well plate and mixed gently. the plates were incubated up to 4 hours at 37C in dark, and absorbance readings were taken at […] and 600 nm wavelengths at 1, 2, 3 and 4h, until control absorbance levels were 1.5-2.0).
# We used a panel of cell lines that included NSCLC, HNSCC, melanoma, and CRC. These cell lines are a good model system harboring similar (epi)genetic changes found in patients' tumors. We used the WST8 assay to determine the in vitro sensitivity to various MTAs with and without EM1.
# PE/CA-PJ15 cells = assay: Western blot of protein biomarkers; conditions: spermidine (50 μM)+IL-12 (50 ng/mL)
# Procedure: as §2, §3
molecule,measurement,setting,value
"COc1ncc(-c2ccc3nccc(-c4ccnnc4)c3c2)cc1NS(=O)(=O)c1ccc(F)cc1F [GSK458, Omipalisib, reference compound]",reduction in the number of live cells (HoPI),Ca-922 cell line,22%
same,reduction in live cells (HoPI),RPMI-1975,30%
"C#Cc1cccc(Nc2ncnc3cc(OCCOC)c(OCCOC)cc23)c1 [erlotinib, Erlotinib hydrochloride, reference compound]","cell survival (MTT), effect of erlotinib alone",[1],absence of effect
"C=CC(=O)Nc1cc(Nc2nccc(-c3cn(C)c4ccccc34)n2)c(OC)cc1N(C)CCN(C)C [osimertinib, Osimertinib, reference compound]",reduction in the number of live cells (HoPI),Ca-922 cell line,41%
granulocyte-macrophage colony-stimulating factor [EM10],Ki67 expression,A-253 cells; compared to both MTA and EM alone,enhanced reduction in Ki67 expression
same,LC3II expression,A-253 cells; compared to either alone,LC3II upregulation
same,p62 expression,A-253 cells; compared to either alone,reduction in p62
interleukin 6 [EM4],"response enhancement (in vitro sensitivity to various MTAs with and without EM, WST8)",[2],"no, minimal and strong response enhancement"
transforming growth factor-beta-1 [EM3],"response enhancement (in vitro sensitivity to various MTAs with and without EM, WST8)",[2],"no, minimal and strong response enhancement"
"interleukin 12 (protein, UniProt P29459 23-219; P29460 23-328, looked up, enhancer molecule, cytokine purchased from Sigma) Interleukin-12 subunit alpha: RNLPVATPDPGMFPCLHHSQNLLRAVSNMLQKARQTLEFYPCTSEEIDHEDITKDKTSTVEACLPLELTKNESCLNSRETSFITNGSCLASRKTSFMMALCLSSIYEDLKMYQVEFKTMNAKLLMDPKRQIFLDQNMLAVIDELMQALNFNSETVPQKSSLEEPDFYKTKIKLCILLHAFRIRAVTIDRVMSYLNAS Interleukin-12 subunit beta: IWELKKDVYVVELDWYPDAPGEMVVLTCDTPEEDGITWTLDQSSEVLGSGKTLTIQVKEFGDAGQYTCHKGGEVLSHSLLLLHKKEDGIWSTDILKDQKEPKNKTFLRCEAKNYSGRFTCWWLTTISTDLTFSVKSSRGSSDPQGVTCGAATLSAERVRGDNKEYEYSVECQEDSACPAAEESLPIEVMVDAVHKLKYENYTSSFFIRDIIKPDPPKNLQLKPLKNSRQVEVSWEYPDTWSTPHSYFSLTFCVQVQGKSKREKKDRVFTDKTSATVICRKNASISVRAQDRYYSSSWSEWASVPCS",p62 expression,PE/CA-PJ15 cells,increased expression
same,LC3II over LC3I expression,"PE/CA-PJ15 cells; 24 hours, compared to either alone",marked increase in LC3II over LC3I expression
